The values that follow come from patent US8034388B2, “Anthocyanin-rich compositions and methods for inhibiting cancer cell growth” (The University of Maryland, priority 2003, dated 2011).

Assay [1] has as its system HCT-15 cells derived from human colon carcinoma. The conditions noted are these: Kamei and coworkers (1995); cited from earlier work.
In the next assay the test system is HT-29 colon cancer cells. Kind of assay: Cell proliferation of HT-29 cells (hemacytometer count, Trypan blue exclusion). It counts as cell-based, human. The following applies: HT-29 carcinoma cells, pure anthocyanin.

Procedure for HT-29 colon cancer cells: Cell Culture—Human HT-29 colon cancer cells (ATCC, HTB 38) were grown in McCoy's 5A medium (BioWhitaker Inc., Walkersville, Md.), and normal colon epithelial cells, NCM460 (INCELL Corp. LLC, Austin, Tex.) were grown in 25% conditioned M3:10 medium (INCELL Corp., LLC). Media were supplemented with 10% fetal bovine serum (FBS) and 1× antibiotic-antimycotic (Invitrogen Corporation, Carlsbad, Calif.), and cells were maintained in a humidified atmosphere of 95% air/5% CO2 at 37° C. […] Cell Proliferation—Freshly trypsinized cells were seeded in 25-cm^2 (1×10^6 cells) or 75-cm^2 (2×10^6 cells) flasks in duplicate. The cells were grown for 24 h under normal growth conditions prior to treatment with chokeberry ARE. Freshly prepared ARE was added in concentrations ranging from 10 to 200 μg monomeric anthocyanin/ml medium. A vehicle control contained acidified water and was added at the same volume as ARE added to treated cells. […] Prior to exposure to ARE for 24 h, 48 h or 72 h treatments, the medium was replaced with fresh medium (10% FBS) containing either vehicle control (acidified water) or ARE. For each time point, the cells were trypsinized and centrifuged at 400 g for 10 min at room temperature. Aliquots of cells were counted using a hemacytometer and viability measured using Trypan blue dye exclusion.

Take `Oc1cc(O)c2cc(O)c(-c3ccc(O)c(O)c3)[o+]c2c1` [cyanidin, Cyanidin]: the “dose for 50% cell growth suppression” value in assay [1] was 2 µg/mL. Regarding `OC[C@H]1O[C@@H](Oc2cc3c(O)cc(O)cc3[o+]c2-c2ccc(O)c(O)c2)[C@H](O)[C@@H](O)[C@H]1O` [cyanidin-3-galactoside], the “cancerous colonic cell growth (visual observations of cell growth and viability)” value in the assay with HT-29 colon cancer cells is “notably inhibited”. `Oc1cc(O)c2cc(O)c(-c3cc(O)c(O)c(O)c3)[o+]c2c1` [delphinidin, Delphinidin]: the “dose for 50% cell growth suppression” value in assay [1] was 0.5 µg/mL.

As to `Oc1ccc(-c2[o+]c3cc(O)cc(O)c3cc2O)cc1` [pelargonidin, Pelargonidin], the “dose for 50% cell growth suppression” value in assay [1] was 5 µg/mL.
